Measurements published in patent US7767665B2, “1,3-benzothiazinone derivatives and use thereof” (Takeda Pharmaceutical Company Limited, priority 2001, dated 2010).

| melting point | SMILES |
| --- | --- |
| 191.2 to 191.7 °C | O=c1nc(-c2ccc(N3CCCCC3)nc2)sc2ccccc12 [Example 34, 2-[6-(1-Piperidino)-3-pyridyl]-4H-1,3-benzothiazine-4-one] |
| 232.6 to 234.4 °C | O=c1nc(-c2ccc(N3CCOCC3)nc2)sc2ccccc12 [Example 35, 2-[6-(4-Morpholino)-3-pyridyl]-4H-1,3-benzothiazine-4-one] |
| 221.5 to 222 °C | O=c1nc(-c2ccc(Sc3ccc(Cl)cc3)nc2)sc2ccccc12 [Example 36, 2-{6-[(4-Chlorophenyl)thio]-3-pyridyl}-4H-1,3-benzothiazine-4-one] |
| 160.8 to 161.3 °C | O=c1nc(-c2cccc(Oc3ccccc3)n2)sc2ccccc12 [Example 41, 2-(6-Phenoxy-2-pyridyl)-4H-1,3-benzothiazine-4-one] |
| 178.7 °C (dec.) | O=c1nc(-c2cccc(N3CCCCC3)n2)sc2ccccc12 [Example 42, 2-[6-(1-Piperidyl)-2-pyridyl]-4H-1,3-benzothiazine-4-one] |
| 256.5 °C (dec.) | C[S+]([O-])c1cccc(-c2nc(=O)c3ccccc3s2)n1 (centres unmarked) [Example 44, 2-(6-Methylsulfinyl-2-pyridyl)-4H-1,3-benzothiazine-4-one] |
| 238.2 to 239.5 °C (dec.) | CS(=O)(=O)c1cccc(-c2nc(=O)c3ccccc3s2)n1 [Example 45, 2-(6-Methylsulfonyl-2-pyridyl)-4H-1,3-benzothiazine-4-one] |
| 176.9 to 178.4 °C | Cc1ccc(Sc2cccc(-c3nc(=O)c4ccccc4s3)n2)cc1 [Example 46, 2-{6-[(4-methylphenyl)thio]-2-pyridyl}-4H-1,3-benzothiazine-4-one] |
| 124.5 to 125.1 °C | CCCSc1cccc(-c2nc(=O)c3ccccc3s2)n1 [Example 59, 2-(6-Propylthio-2-pyridyl)-4H-1,3-benzothiazine-4-one] |
| 245.8 °C (dec.) | O=c1nc(-c2cccc(N3CCN(c4ccccc4)CC3)n2)sc2ccccc12 [Example 62, 2-[6-(4-Phenyl-1-piperazinyl)-2-pyridyl]-4H-1,3-benzothiazine-4-one] |
| 71 to 71.9 °C | CC(C)(C)OC(=O)CCOCCCc1cccc(-c2nc(=O)c3ccccc3s2)n1 [Example 66, tert-Butyl 3-{3-[6-(4-oxo-4H-1,3-benzothiazin-2-yl)-2-pyridyl]propoxy}propanoate] |
| 116 to 116.5 °C | O=c1nc(-c2ccnc(OCc3ccccc3)c2)sc2ccccc12 [Example 69, 2-(2-Benzyloxy-4-pyridyl)-4H-1,3-benzothiazine-4-one] |
| 145.9 to 146.6 °C | CN(Cc1ccccc1)c1cc(-c2nc(=O)c3ccccc3s2)ccn1 [Example 71, 2-[2-(N-Benzyl-N-methylamino)-4-pyridyl]-4H-1,3-benzothiazine-4-one] |
| 133.8 to 134.6 °C | CCCCCCNc1cc(-c2nc(=O)c3ccccc3s2)ccn1 [Example 72, 2-[2-(Hexylamino)-4-pyridyl]-4H-1,3-benzothiazine-4-one] |
| 233 to 233.6 °C | O=c1nc(-c2ccnc(N3CCN(c4ccc(F)cc4)CC3)c2)sc2ccccc12 [Example 74, 2-{2-[4-(4-Fluorophenyl)-1-piperazinyl]-4-pyridyl}-4H-1,3-benzothiazine-4-one] |
| 162.7 to 163 °C | O=c1nc(-c2ccnc(-c3ccccc3)c2)sc2ccccc12 [Example 75, 2-(2-Phenyl-4-pyridyl)-4H-1,3-benzothiazine-4-one] |
| 160.4 to 161.1 °C | O=c1nc(-c2ccnc(-c3cccs3)c2)sc2ccccc12 [Example 75, 2-[2-(2-Thienyl)-4-pyridyl]-4H-1,3-benzothiazine-4-one] |
| 165.8 to 166 °C | CC(C)(C)OC(=O)CCc1cccc(-c2nc(=O)c3ccccc3s2)n1 [Example 78, tert-Butyl 3-[6-(4-oxo-4H-1,3-benzothiazin-2-yl)-2-pyridyl]propanoate] |
| 313.3 to 315 °C | O=c1nc(-c2ccccn2)sc2ccc(O)cc12 [Example 84, 6-Hydroxy-2-(2-pyridyl)-4H-1,3-benzothiazine-4-one] |
| 157.2 to 158.5 °C | COC(CCCNc1ccc(-c2nc(=O)c3ccccc3s2)cn1)OC [Example 86, 2-[6-[(4,4-Dimethoxybutyl)amino]-3-pyridyl]-4H-1,3-benzothiazine-4-one] |
| 105.3 to 107.3 °C | Cc1cc(C)c2sc(-c3cccc(CCCOCCC(=O)OC(C)(C)C)n3)nc(=O)c2c1 [Example 87] |
| 156.5 to 157.1 °C | Cc1cc(C)c2sc(-c3cccc(CCCOCCC(=O)O)n3)nc(=O)c2c1 [Example 88] |
| 140.5 to 140.6 °C | CSc1ccc(Oc2ccc(-c3nc(=O)c4ccccc4s3)cn2)cc1 [Example 89] |
| 172.6 to 172.8 °C | Cc1ccc(Sc2ccc(-c3nc(=O)c4ccccc4s3)cn2)cc1 [Example 90, 2-[2-(4-Methyl)phenylthio-3-pyridyl]-4H-1,3-benzothiazine-4-one] |

| melting point | SMILES |
| --- | --- |
| 152.3 to 156.2 °C | CCOc1ccc(-c2nc(=O)c3ccccc3s2)cn1 [Example 91, 2-(6-Ethoxy-3-pyridyl)-4H-1,3-benzothiazine-4-one] |
| 92.8 to 93.1 °C | CC(C)CCSc1ccc(-c2nc(=O)c3ccccc3s2)cn1 [Example 92] |
| 109.7 to 110.4 °C | CC(C)Oc1ccc(-c2nc(=O)c3ccccc3s2)cn1 [Example 93, 2-[6-Isopropoxy-3-pyridyl]-4H-1,3-benzothiazine-4-one] |
| 93.6 to 94.9 °C | CCOCCOc1ccc(-c2nc(=O)c3ccccc3s2)cn1 [Example 94, 2-[6-(2-Ethoxyethoxy)-3-pyridyl]-4H-1,3-benzothiazine-4-one] |
| 212.4 to 212.6 °C | O=C1c2ccccc2C(=O)N1CCOc1ccc(-c2nc(=O)c3ccccc3s2)cn1 [Example 95] |
| 73.6 to 73.9 °C | CCOC(=O)CCCCCOc1ccc(-c2nc(=O)c3ccccc3s2)cn1 [Example 96, Ethyl 6-{[5-(4-oxo-4H-1,3-benzothiazin-2-yl)-2-pyridyl]oxy}hexanoate] |
| 81.1 to 82.2 °C | CC(C)(C)OC(=O)CCOCCCc1ccnc(-c2nc(=O)c3ccccc3s2)c1 [Example 101, tert-Butyl 3-[3-[2-(4-oxo-4H-1,3-benzothiazin-2-yl)-4-pyridyl]propoxy]propanoate] |
| 195.6 to 196.3 °C | CN(C(=O)OC(C)(C)C)c1cccc(-c2nc(=O)c3ccccc3s2)n1 [Example 108, tert-Butyl methyl[6-(4-oxo-4H-1,3-benzothiazin-2-yl)-2-pyridyl]carbamate] |
| 206.9 to 208 °C | CNc1cccc(-c2nc(=O)c3ccccc3s2)n1 [Example 109, 2-(6-Methylamino-2-pyridyl)-4H-1,3-benzothiazine-4-one] |
| 218.3 to 220.3 °C | CC(=O)N(C)c1cccc(-c2nc(=O)c3ccccc3s2)n1 [Example 110, N-Methyl-N-[6-(4-oxo-4H-1,3-benzothiazin-2-yl)-2-pyridyl]acetamide] |
| 200.6 to 201.2 °C | CCC(=O)N(C)c1cccc(-c2nc(=O)c3ccccc3s2)n1 [Example 114, N-Methyl-N-[6-(4-oxo-4H-1,3-benzothiazin-2-yl)-2-pyridyl]propanamide] |
| 196.6 to 197.7 °C | O=c1nc(-c2ccccn2)sc2ccc(OCCCO)cc12 [Example 118, 6-(3-Hydroxypropoxy)-2-(2-pyridyl)-4H-1,3-benzothiazine-4-one] |
| 135.6 to 137 °C | O=c1nc(-c2ccccn2)sc2ccc(OCCCCCCO)cc12 [Example 119, 6-(6-Hydroxyhexyloxy)-2-(2-pyridyl)-4H-1,3-benzothiazine-4-one] |
| 170 to 170.3 °C | O=c1nc(-c2ccccn2)sc2ccc(OCCCc3ccccc3)cc12 [Example 120, 6-(3-Phenylpropoxy)-2-(2-pyridyl)-4H-1,3-benzothiazine-4-one] |
| 198 to 198.8 °C | O=c1nc(-c2ccccn2)sc2ccc(OCc3ccccc3)cc12 [Example 121, 6-(Benzyloxy)-2-(2-pyridyl)-4H-1,3-benzothiazine-4-one] |
| 183 to 184.1 °C | CC(C)(C)OC(=O)COc1ccc2sc(-c3ccccn3)nc(=O)c2c1 [Example 122, tert-Butyl 2-[[4-oxo-2-(2-pyridyl)-4H-1,3-benzothiazin-6-yl]oxy]acetate] |
| 250 °C (dec.) | O=C(O)COc1ccc2sc(-c3ccccn3)nc(=O)c2c1 [Example 123, 2-[[4-Oxo-2-(2-pyridyl)-4H-1,3-benzothiazin-6-yl]oxy]acetic acid] |
| 101.2 to 102.4 °C | CC(C)(C)OC(=O)CCCCCOc1ccc2sc(-c3ccccn3)nc(=O)c2c1 [Example 124, tert-Butyl 6-[[4-oxo-2-(2-pyridyl)-4H-1,3-benzothiazin-6-yl]oxy]hexanoate] |
| 205.4 to 206.3 °C | O=C(O)CCCCCOc1ccc2sc(-c3ccccn3)nc(=O)c2c1 [Example 125, 6-[[4-Oxo-2-(2-pyridyl)-4H-1,3-benzothiazin-6-yl]oxy]hexanoic acid] |
| 105 to 105.1 °C | CCCCCSc1cccc(-c2nc(=O)c3ccccc3s2)n1 [Example 129, 2-[6-(Pentylthio)-2-pyridyl]-4H-1,3-benzothiazine-4-one] |
| 103.4 to 105.1 °C | CC(C)CCSc1cccc(-c2nc(=O)c3ccccc3s2)n1 [Example 130, 2-[6-(Isopentylthio)-2-pyridyl]-4H-1,3-benzothiazine-4-one] |
| 167.1 to 168.4 °C | O=c1nc(-c2cccc(SCCc3ccccc3)n2)sc2ccccc12 [Example 131, 2-[6-(2-Phenethylthio)-2-pyridyl]-4H-1,3-benzothiazine-4-one] |
| 294.7 to 295.1 °C | O=C(O)c1ccc2c(=O)nc(-c3ccccn3)sc2c1 [Example 135, 4-Oxo-2-(2-pyridyl)-4H-1,3-benzothiazine-7-carboxylic acid] |
| 169.8 to 170.3 °C | Cc1cccc(-c2nc(=O)c3ccccc3s2)n1 [Example 136, 2-(6-Methyl-2-pyridyl)-4H-1,3-benzothiazine-4-one] |

| SMILES | melting point |
| --- | --- |
| CCCCOc1ccc2sc(-c3ccccn3)nc(=O)c2c1 [Example 116, 6-Butoxy-2-(2-pyridyl)-4H-1,3-benzothiazine-4-one] | 160.9 to 161.8 °C |
| CC(C)COc1ccc2sc(-c3ccccn3)nc(=O)c2c1 [Example 117, 6-Isobutoxy-2-(2-pyridyl)-4H-1,3-benzothiazine-4-one] | 135.5 to 136.5 °C |
